Literature values in patent publication US8466198B2, “Compositions comprising creatine salts and methods of use thereof” (priority 2008, dated 2013).

SMILES | average gain in athletic performance (creatine ingestion, depending on the measured variable) [%] | increase in body mass (first week of loading) | improvement of maximal power/strength (short term supplementation) | improvement of single effort sprint performance (short term supplementation) | improvement of work performed during exercise of maximal effort muscle contractions (short term supplementation) | improvement of work performed during repetitive sprint performance (short term supplementation)
CN(CC(=O)O)C(=N)N [Creatine] | 10 to 15 |  |  |  |  | 
CN(CC(=O)O)C(=N)N.O [creatine monohydrate] |  | 1-2 kilograms | 5-15% | 1-5% | 5-15% | 5-15%
